Data taken from patent publication US10689381B2 (priority 2017, dated 2020).

How the values were obtained:
[1] = system: L1210; experiment: cells; assay type: cell-based, mouse; details: Table 2
Description: (§1) A population of cells (>1×10^6 cells/mL as determined with a hemocytometer) was diluted with Dulbecco's Modified Eagle Medium (DMEM, Gibco) containing 10% fetal bovine serum (FBS, Gibco) to give a final concentration of 30,000 cells/mL. To each well of a 96-well plate (Corning® Costar®) was added 100 μL of the cell media solution with a multichannel pipet.
(§2) The test compounds were then added to the plate as follows: test compounds were diluted in DMSO to a concentration of 1 mM. 10-Fold serial dilutions in DMSO were next performed on a separate 96-well plate. Fresh culture media (100 μL) was added to each well of cells resulting in 200 μL of medium per well followed by 2 μL of each test agent. Compounds were tested in duplicate (n=2-8 times) at six concentrations between 0-1000 nM or 0-10000 nM. Following the addition of compound, cultures were incubated for an additional 72 hours.
(§3) The plates were incubated at 37° C. for 5 minutes (L1210) or 15 min (HCT116 and HCT116/VM46).

[2] = system: HCT116; experiment: cells; assay type: cell-based, human; details: for IC50: Table 2, read-out: IC50 HCT116; for potency relative to vinblastine (more potent): vinblastine-sensitive cell lines
Description: as §1, §2, §3

Row | Compound | IC50 [1] [nM] | IC50 [2] [nM] | potency relative to vinblastine (more potent) [2] [fold]
1 | CC[C@]1(NC(=O)c2ccccc2F)C[C@H]2CN(CCc3c([nH]c4ccccc34)[C@@](C(=O)OC)(c3cc4c(cc3OC)N(C)[C@H]3[C@@](O)(C(=O)OC)[C@H](OC(C)=O)[C@]5(CC)C=CCN6CC[C@]43[C@@H]65)C2)C1 [Compound 46] | 8.4 | 7.7 | –
2 | CC[C@]1(NC(=O)c2ccc(Cl)cc2)C[C@H]2CN(CCc3c([nH]c4ccccc34)[C@@](C(=O)OC)(c3cc4c(cc3OC)N(C)[C@H]3[C@@](O)(C(=O)OC)[C@H](OC(C)=O)[C@]5(CC)C=CCN6CC[C@]43[C@@H]65)C2)C1 [Compound 47] | 3.1 | 3.2 | –
3 | CC[C@]1(NC(=O)c2cccc(Cl)c2)C[C@H]2CN(CCc3c([nH]c4ccccc34)[C@@](C(=O)OC)(c3cc4c(cc3OC)N(C)[C@H]3[C@@](O)(C(=O)OC)[C@H](OC(C)=O)[C@]5(CC)C=CCN6CC[C@]43[C@@H]65)C2)C1 [Compound 48] | 4.2 | 2.7 | –
4 | CC[C@]1(NC(=O)c2ccccc2Cl)C[C@H]2CN(CCc3c([nH]c4ccccc34)[C@@](C(=O)OC)(c3cc4c(cc3OC)N(C)[C@H]3[C@@](O)(C(=O)OC)[C@H](OC(C)=O)[C@]5(CC)C=CCN6CC[C@]43[C@@H]65)C2)C1 [Compound 49] | 50 | 55 | –
5 | CC[C@]1(NC(=O)c2ccc(Cl)c(Cl)c2)C[C@H]2CN(CCc3c([nH]c4ccccc34)[C@@](C(=O)OC)(c3cc4c(cc3OC)N(C)[C@H]3[C@@](O)(C(=O)OC)[C@H](OC(C)=O)[C@]5(CC)C=CCN6CC[C@]43[C@@H]65)C2)C1 [Compound 50] | 8.5 | 8.7 | –
6 | CC[C@]1(NC(=O)c2ccc(Br)cc2)C[C@H]2CN(CCc3c([nH]c4ccccc34)[C@@](C(=O)OC)(c3cc4c(cc3OC)N(C)[C@H]3[C@@](O)(C(=O)OC)[C@H](OC(C)=O)[C@]5(CC)C=CCN6CC[C@]43[C@@H]65)C2)C1 [Compound 51] | 2.7 | 1.4 | –
7 | CC[C@]1(NC(=O)c2cccc(Br)c2)C[C@H]2CN(CCc3c([nH]c4ccccc34)[C@@](C(=O)OC)(c3cc4c(cc3OC)N(C)[C@H]3[C@@](O)(C(=O)OC)[C@H](OC(C)=O)[C@]5(CC)C=CCN6CC[C@]43[C@@H]65)C2)C1 [Compound 52] | 5 | 6.3 | –
8 | CCC1(NC(=O)c2ccc(Br)c(Br)c2)CC2CN(CCc3c([nH]c4ccccc34)C(C(=O)OC)(c3cc4c(cc3OC)N(C)C3C(O)(C(=O)OC)C(OC(C)=O)C5(CC)C=CCN6CCC43C65)C2)C1 (centres unmarked) [Compound 53] | 60 | 40 | –
9 | CCC1(NC(=O)c2ccc(C#N)c(C)c2)CC2CN(CCc3c([nH]c4ccccc34)C(C(=O)OC)(c3cc4c(cc3OC)N(C)C3C(O)(C(=O)OC)C(OC(C)=O)C5(CC)C=CCN6CCC43C65)C2)C1 (centres unmarked) [Compound 55] | 4.8 | 6.2 | –
10 | CCC1(NC(=O)c2ccc([N+](=O)[O-])cc2)CC2CN(CCc3c([nH]c4ccccc34)C(C(=O)OC)(c3cc4c(cc3OC)N(C)C3C(O)(C(=O)OC)C(OC(C)=O)C5(CC)C=CCN6CCC43C65)C2)C1 (centres unmarked) [Compound 56] | 6.1 | 6.1 | –
11 | CC[C@]1(NC(=O)c2ccc(N)cc2)C[C@H]2CN(CCc3c([nH]c4ccccc34)[C@@](C(=O)OC)(c3cc4c(cc3OC)N(C)[C@H]3[C@@](O)(C(=O)OC)[C@H](OC(C)=O)[C@]5(CC)C=CCN6CC[C@]43[C@@H]65)C2)C1 [Compound 57] | 0.4 | 0.4 | –
12 | CCC1(NC(=O)c2ccc(NC(=O)OC)cc2)CC2CN(CCc3c([nH]c4ccccc34)C(C(=O)OC)(c3cc4c(cc3OC)N(C)C3C(O)(C(=O)OC)C(OC(C)=O)C5(CC)C=CCN6CCC43C65)C2)C1 (centres unmarked) [Compound 59] | 1.5 | 0.8 | –
13 | CC[C@]1(NC(=O)c2ccc(NC)cc2)C[C@H]2CN(CCc3c([nH]c4ccccc34)[C@@](C(=O)OC)(c3cc4c(cc3OC)N(C)[C@H]3[C@@](O)(C(=O)OC)[C@H](OC(C)=O)[C@]5(CC)C=CCN6CC[C@]43[C@@H]65)C2)C1 [Compound 62] | 0.38 | 0.33 | –
14 | CC[C@]1(NC(=O)c2ccc(N(C)C(=O)OC(C)(C)C)cc2)C[C@H]2CN(CCc3c([nH]c4ccccc34)[C@@](C(=O)OC)(c3cc4c(cc3OC)N(C)[C@H]3[C@@](O)(C(=O)OC)[C@H](OC(C)=O)[C@]5(CC)C=CCN6CC[C@]43[C@@H]65)C2)C1 [Compound 63] | 4.1 | 3.9 | –
15 | CCC1(NC(=O)c2ccc(CN)cc2)CC2CN(CCc3c([nH]c4ccccc34)C(C(=O)OC)(c3cc4c(cc3OC)N(C)C3C(O)(C(=O)OC)C(OC(C)=O)C5(CC)C=CCN6CCC43C65)C2)C1 (centres unmarked) [Compound 65] | 25 | 3.5 | –
16 | CC[C@]1(NC(=O)c2ccc(CNC(=O)OC(C)(C)C)cc2)C[C@H]2CN(CCc3c([nH]c4ccccc34)[C@@](C(=O)OC)(c3cc4c(cc3OC)N(C)[C@H]3[C@@](O)(C(=O)OC)[C@H](OC(C)=O)[C@]5(CC)C=CCN6CC[C@]43[C@@H]65)C2)C1 [Compound 66] | 0.76 | 0.7 | –
17 | CCC1(NC(=O)c2ccc(OC)cc2)CC2CN(CCc3c([nH]c4ccccc34)C(C(=O)OC)(c3cc4c(cc3OC)N(C)C3C(O)(C(=O)OC)C(OC(C)=O)C5(CC)C=CCN6CCC43C65)C2)C1 (centres unmarked) [Compound 67] | 0.25 | 0.3 | –
18 | CCC1(NC(=O)c2cccc(OC)c2)CC2CN(CCc3c([nH]c4ccccc34)C(C(=O)OC)(c3cc4c(cc3OC)N(C)C3C(O)(C(=O)OC)C(OC(C)=O)C5(CC)C=CCN6CCC43C65)C2)C1 (centres unmarked) [Compound 68] | 0.6 | 0.8 | –
19 | CCC1(NC(=O)c2ccccc2OC)CC2CN(CCc3c([nH]c4ccccc34)C(C(=O)OC)(c3cc4c(cc3OC)N(C)C3C(O)(C(=O)OC)C(OC(C)=O)C5(CC)C=CCN6CCC43C65)C2)C1 (centres unmarked) [Compound 69] | 30 | 10 | –
20 | CCC1(NC(=O)c2ccc(OC)c(OC)c2)CC2CN(CCc3c([nH]c4ccccc34)C(C(=O)OC)(c3cc4c(cc3OC)N(C)C3C(O)(C(=O)OC)C(OC(C)=O)C5(CC)C=CCN6CCC43C65)C2)C1 (centres unmarked) [Compound 70] | 0.06 | 0.07 | –
21 | CC[C@]1(NC(=O)c2cc(OC)c(OC)c(OC)c2)C[C@H]2CN(CCc3c([nH]c4ccccc34)[C@@](C(=O)OC)(c3cc4c(cc3OC)N(C)[C@H]3[C@@](O)(C(=O)OC)[C@H](OC(C)=O)[C@]5(CC)C=CCN6CC[C@]43[C@@H]65)C2)C1 [Compound 71] | 0.09 | 0.1 | –
22 | CCOc1ccc(C(=O)NC2(CC)CC3CN(CCc4c([nH]c5ccccc45)C(C(=O)OC)(c4cc5c(cc4OC)N(C)C4C(O)(C(=O)OC)C(OC(C)=O)C6(CC)C=CCN7CCC54C76)C3)C2)cc1 (centres unmarked) [Compound 72] | 0.6 | 0.6 | 10
23 | CCOc1ccc(C(=O)NC2(CC)CC3CN(CCc4c([nH]c5ccccc45)C(C(=O)OC)(c4cc5c(cc4OC)N(C)C4C(O)(C(=O)OC)C(OC(C)=O)C6(CC)C=CCN7CCC54C76)C3)C2)cc1OCC (centres unmarked) [Compound 73] | 0.4 | 0.5 | –
24 | CCC1(NC(=O)c2ccc(OC(C)C)cc2)CC2CN(CCc3c([nH]c4ccccc34)C(C(=O)OC)(c3cc4c(cc3OC)N(C)C3C(O)(C(=O)OC)C(OC(C)=O)C5(CC)C=CCN6CCC43C65)C2)C1 (centres unmarked) [Compound 74] | 0.7 | 0.8 | 10
